The values below come from patent publication US10758541B2, “Formulations of milciclib and therapeutic combinations of the same for use in the treatment of cancer” (Tiziana Life Sciences PLC, priority 2017, dated 2020).

Test [1] relates to MHCC97H cells. Description: IC50 values by cell proliferation assay (WST-1). It is filed as cell-based, human. Conditions: Homo sapiens, MHCC97H, 72 h, individual inhibitor, 72 hours, WST-1; read-out: MHCC97H IC50. On the procedure: MHCC97H and MHCC97L (highly metastatic hepatocellular carcinoma cell line, derived from humans)
Cells (MHCC97H, MHCC97L, and HepG2.2.15) were cultured for 24 hours in 2% FBS and then were trypsinized, resuspended in 2% FBS and seeded in a rat collagen coated 96-well plate at a density of 10,000 cells/100 μl/well, a day before the experiment and cultured at 37° C. in 5% CO2. The cells were treated the next day with milciclib, sorafenib, regorafenib, sunitinib, and lenvatinib, individually or in combination in DMEM/F12+2% FBS+for 72 hours prior to the addition of WST-1 reagent. About 100 μL media was added to control well. […] To determine cell proliferation by the colorimetric test, 10 μL of WST-1 reagent (Sigma Aldrich, St Louis, Mo.) was added in 100 μL cell culture media and incubated for 2 hours in 5% CO2 at 37° C. At the end of incubation period, the plate was placed on a plate shaker for 1 minute and was monitored using a spectrophotometer at an optical density of 450 nm with a reference wavelength of 600 nm using Tecan F200 and iControl software. IC50 values were determined using GraphPad Prism (GraphPad Software, La Jolla, Calif.). Each experiment was performed in duplicate and repeated 2 times.
Background: Tetrazolium assays rely on reduction of a dye to a coloured formazan, in cell work by metabolically active cells.

For test [2], the system named is MHCC97H human liver cells. Description: Orthotopic tumor induction in athymic nude mice. Conditions: oral, once daily day 12 to 47; milciclib 30 mg/kg/day, sorafenib 20 mg/kg/day; vs vehicle. It is filed as in vivo. Here is the method:
Mouse experiments were performed in accordance with the guidelines approved by the Institutional Animal Care and use committee of Washington Biotechnology Inc (Baltimore, Md.) where the studies were conducted. (FIG. 66) Test agents were dissolved in chremophor/ethanol (1:1) to make a 5× stock solution and diluted in water when used. MHCC97H human liver cells (5×106) in PBS were mixed with 20% Matrigel and then inoculated orthotopically into the right flank of female Balb/c nude mice. Seven days after cell inoculation, the mice were randomly allocated to either the treatment group (n=12) or the control group (n=12) based on the levels of AFP. The daily animal inspection was conducted for general appearance and tumor growth. Milciclib (30 mg/Kg), sorafenib (20 mg/Kg), milciclib+sorafenib or the corresponding vehicle was given orally to individual mice once daily from day 12 until day 47. After completion of the treatment at day 48, animals were euthanized and blood, liver tissues and tumor were collected for gene expression and mechanistic assays. Liver tumors developed 100% of animals challenged with orthotopic MHCC97H injection.

Test [3] relates to pAKT (Ser473), AKT, c-Myc, Cyclin D1, PTEN. Description: Western blot analysis of tumor tissues. Type of test: in vivo, mice. Particulars: liver samples, vs vehicle treated group. On the procedure:
The tumor tissues from a thymic nude mice were weighed and homogenized with RIPA lysis buffer (Sigma-Aldrich, St. Louis, Mo.) and protease inhibitor cocktail (Sigma-Aldrich, St. Louis, Mo.). Tumor lysates were cleared by centrifugation and the protein concentration was determined using Bradford reagent (Sigma-Aldrich, St. Louis, Mo.). Equal amounts of protein (30 μg) were resolved on precast polyacrylamide gels (Thermo Fisher Scientific, Rockford, Ill.) and transferred to nitrocellulose membrane, 0.2 μm pore size (Thermo Fisher Scientific, Rockford, Ill.). The blots were blocked with 5% (w/v) nonfat dry milk for 2 h at room temperature and then probed with primary antibody overnight at 4° C. The primary antibodies were directed against the following proteins: human PTEN, human AKT and phospho-AKT (Ser473), human c-Myc, human CyclinD1 and human β-actin (Cell Signaling Technology, Beverly, Mass.). After three washes, incubation was followed by the reaction with horseradish peroxidase-conjugated secondary antibody for 1 h at room temperature. The immunoreactive bands were visualized using Image Studio 4.0-Western Analysis Ribbon (Li-Cor, Lincoln, Nebr.).

The subject of test [4] is p27, p21, p57, p53, cyclin D1, cyclin E2, MKI67, c-Myc, CdC6. The test is described as follows: Quantitative real-time PCR gene expression in orthotopic HCC tumors. Type of test: in vivo. Particulars: orthotopic HCC mice. On the procedure:
Total RNA was extracted using the RNeasy Mini kit according to the manufacturer's instructions (Qiagen, Germantown, Md.). RNA was quantified using Nanodrop Lite (Thermo Scientific, Wilmington, Del.). Complementary DNA (cDNA) synthesis was performed by reverse transcription of total RNA using the High Capacity cDNA Reverse Transcription Kit (Thermo Fisher Scientific, Rockford, Ill.). Real-time quantitative PCR was employed using the LightCycler 480 Instrument II (Roche Diagnostics Corporation, Indianapolis, Ind.) using TaqMan Fast Advanced Master Mix and TaqMan Gene Expression probes for human p27, cyclin E2, cyclin A2, CdC6, MKI67, cyclin D1, p21, p57, c-Myc and p53 (Thermo Fisher Scientific). The expression of target genes was normalized to the housekeeping gene GAPDH in each sample. All samples were run in duplicate and the relative gene expression calculated as 2−ΔCT was expressed as fold increase over control samples.
On the technique in general: Real-time PCR tracks product formation cycle by cycle.

The subject of test [5] is HepG2.2.15 cells. The test is described as follows: Wound healing assay. Type of test: cell-based, human. Conditions: scratched monolayer of HepG2.2.15 cells, 96 hours, vs vehicle control. On the procedure:
(§1) Cells were seeded at a density of 500,000 cells/2 mL/well on to a collagen-coated 6-well culture plate and incubated overnight in a humidified CO2 incubator at 37° C. to form a uniform monolayer. The monolayer was then scratched in a straight line with a new 10 μL pipette tip across the center of the well. After scratching, cells were washed with sterile PBS once to remove detached cells. Subsequently, wells were replenished with fresh DMEM/F12 containing 2% FBS and the test article either alone or in combination with milciclib. […] Images were analyzed using SlideBook™ 5 software. The values were expressed as a percentage of migration. See Saxena N K, Sharma D, Ding X, et al. Concomitant activation of the JAK/STAT, PI3K/AKT, and ERK signaling is involved in leptin-mediated promotion of invasion and migration of hepatocellular carcinoma cells. Cancer Res. 2007; 67: 2497-2507.

The test system of test [6] is MHCC97L cells. The test is described as follows: Wound healing assay. Type of test: cell-based, human. Particulars: scratched monolayer of MHCC97L cells, 96 hours, vs vehicle control. Here is the method:
as §1

For `CNC(=O)c1nn(C)c2c1C(C)(C)Cc1cnc(Nc3ccc(N4CCN(C)CC4)cc3)nc1-2` [MILCICLIB, N,1,4,4-tetramethyl-8-((4-(4-methylpiperazin-1-yl)phenyl)amino)-4,5-dihydro-1H-pyrazolo[4,3-h]quinazoline-3-carboxamide], the IC50 (in general, the midpoint of a concentration-inhibition curve) in test [1] is 1300 nM. For the same compound, the reducing tumor growth in test [2] is on record as 20%. Moreover, in test [3], the PTEN expression result is recorded as “upregulation”; the “pAKT, c-Myc and cyclin D1 expression” value is reported as “reduction”. Besides, in test [4] (oral administration), the “expression of cell proliferation genes such as MKI67, cdc6, c-Myc” value was “downregulated”; the “expression of cyclins such as cyclin E2 and cyclin D1” value is given as “downregulated”. Further, the “expression of tumor suppressors such as p27, p21, p53 and p57” value in test [4] (oral treatment) is “upregulated”. Besides, the cell migration entry in test [5] is listed as “reduced cell migration”. The cell migration entry in test [6] is given as “reduced cell migration”.
